Experimental data taken from US8470828B2, “Anellated pyridine compounds” (Hoffmann-La Roche Inc., priority 2010, dated 2013).

How the values were obtained:
[1] = biological target: T1, human D2 receptor (Homo sapiens, UniProt P14416); test: Radioligand binding to cloned human D2 receptor expressed in HEK-293 EBNA cells ([3H]-spiperone); conditions: HEK293 EBNA cell membranes, approximately 0.7 nM [3H]-spiperone, 1 h at RT
T1 construct: expressed in transfected cells; host or cells: HEK293 EBNA cells, transient transfection; membrane preparation

[2] = biological target: human D3 receptor (Homo sapiens, UniProt P35462); test: Radioligand binding to cloned human D3 receptor expressed in HEK-293 EBNA cells ([3H]-spiperone)
[3] = biological target: human 5-HT2A receptor (Homo sapiens, UniProt P28223); test: Radioligand binding to cloned human 5-HT2A receptor expressed in HEK-293 EBNA cells ([3H]-ketanserin)
Sequence of human 5-HT2A receptor (P28223 whole entry): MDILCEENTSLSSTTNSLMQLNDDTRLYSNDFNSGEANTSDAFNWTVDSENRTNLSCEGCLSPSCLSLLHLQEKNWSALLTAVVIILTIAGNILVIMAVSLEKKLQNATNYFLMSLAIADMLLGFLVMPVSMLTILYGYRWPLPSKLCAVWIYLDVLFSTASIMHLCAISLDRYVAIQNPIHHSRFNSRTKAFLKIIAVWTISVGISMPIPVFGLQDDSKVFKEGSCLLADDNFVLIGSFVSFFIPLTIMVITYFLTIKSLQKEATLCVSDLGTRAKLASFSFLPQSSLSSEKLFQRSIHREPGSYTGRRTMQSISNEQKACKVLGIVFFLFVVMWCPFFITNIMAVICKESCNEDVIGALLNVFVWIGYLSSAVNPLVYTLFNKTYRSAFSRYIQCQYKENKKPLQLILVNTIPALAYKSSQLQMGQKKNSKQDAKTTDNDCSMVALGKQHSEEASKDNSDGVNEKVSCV

Sequence of human D3 receptor (P35462 whole entry): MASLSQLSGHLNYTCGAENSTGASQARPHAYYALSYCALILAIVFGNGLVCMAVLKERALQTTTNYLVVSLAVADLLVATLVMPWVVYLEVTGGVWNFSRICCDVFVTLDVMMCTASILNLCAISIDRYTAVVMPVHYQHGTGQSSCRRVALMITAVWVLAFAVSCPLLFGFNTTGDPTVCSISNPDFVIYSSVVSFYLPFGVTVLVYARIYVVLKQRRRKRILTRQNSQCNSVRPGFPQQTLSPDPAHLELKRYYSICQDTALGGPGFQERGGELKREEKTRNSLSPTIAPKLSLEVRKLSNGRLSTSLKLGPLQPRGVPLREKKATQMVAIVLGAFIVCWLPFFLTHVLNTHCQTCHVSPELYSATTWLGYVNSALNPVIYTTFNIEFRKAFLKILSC
T1 sequence (P14416 whole entry): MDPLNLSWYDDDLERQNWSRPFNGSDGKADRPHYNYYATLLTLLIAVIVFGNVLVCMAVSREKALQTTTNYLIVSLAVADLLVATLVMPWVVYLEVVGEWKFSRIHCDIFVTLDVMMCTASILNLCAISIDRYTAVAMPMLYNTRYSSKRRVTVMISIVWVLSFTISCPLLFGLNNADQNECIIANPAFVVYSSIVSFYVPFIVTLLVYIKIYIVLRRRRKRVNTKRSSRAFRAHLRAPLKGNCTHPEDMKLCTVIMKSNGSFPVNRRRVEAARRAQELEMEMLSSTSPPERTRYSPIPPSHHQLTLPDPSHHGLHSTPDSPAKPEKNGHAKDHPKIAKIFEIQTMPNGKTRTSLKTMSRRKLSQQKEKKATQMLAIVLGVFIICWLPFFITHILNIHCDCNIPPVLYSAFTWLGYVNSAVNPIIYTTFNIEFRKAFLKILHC

Ki [1] [nM] | Ki [2] [nM] | Ki [3] [nM] | melting point [°C] | SMILES
975 | 9.32 | 8.16 | 193 | O=C(CC1COCCO1)N[C@H]1CC[C@H](CCN2CCN(c3nccc4ccoc34)CC2)CC1 (mixture of isomers) [Example 15, trans-2-rac-[1,4]Dioxan-2-yl-N-{4-[2-(4-furo[2,3-c]pyridin-7-yl-piperazin-1-yl)-ethyl]-cyclohexyl}-acetamide]
354 | 9.31 | 45.2 | 173.5 | O=C(CC1CCCO1)N[C@H]1CC[C@H](CCN2CCN(c3nccc4c3OCC4)CC2)CC1 (mixture of isomers) [Example 29, trans-N-(4-{2-[4-(2,3-Dihydro-furo[2,3-c]pyridin-7-yl)-piperazin-1-yl]-ethyl}-cyclohexyl)-2-rac-(tetrahydro-furan-2-yl)-acetamide]
712 | 13.9 | 32.9 | 185 | O=C(N[C@H]1CC[C@H](CCN2CCN(c3nccc4c3OCC4)CC2)CC1)C(O)C(F)(F)F (mixture of isomers) [Example 58, trans-N-(4-{2-[4-(2,3-Dihydro-furo[2,3-c]pyridin-7-yl)-piperazin-1-yl]-ethyl}-cyclohexyl)-(RS)-3,3,3-trifluoro-2-hydroxy-propionamide]
1140 | 72.8 | 20.4 | 145 | O=C(N[C@H]1CC[C@H](CCN2CCN(c3nccc4c3OCC4)CC2)CC1)C1CCCO1 (mixture of isomers) [Example 82, (RS)-Tetrahydro-furan-2-carboxylic acid trans-(4-{2-[4-(2,3-dihydro-furo[2,3-c]pyridin-7-yl)-piperazin-1-yl]-ethyl}-cyclohexyl)-amide]
714 | 17.3 | 48.9 | 196.5 | CCC(C)C(=O)N[C@H]1CC[C@H](CCN2CCN(c3nccc4c3OCC4)CC2)CC1 (mixture of isomers) [Example 83, trans-N-(4-{2-[4-(2,3-Dihydro-furo[2,3-c]pyridin-7-yl)-piperazin-1-yl]-ethyl}-cyclohexyl)-(RS)-2-methyl-butyramide]
604 | 23.1 | 27.8 | 203 | O=C(N[C@H]1CC[C@H](CCN2CCN(c3nccc4c3OCC4)CC2)CC1)C1CCCOC1 (mixture of isomers) [Example 97, (RS)-Tetrahydro-pyran-3-carboxylic acid trans-(4-{2-[4-(2,3-dihydro-furo[2,3-c]pyridin-7-yl)-piperazin-1-yl]-ethyl}-cyclohexyl)-amide]
633 | 8.85 | 55.5 | 168.5 | COC(C)CC(=O)N[C@H]1CC[C@H](CCN2CCN(c3nccc4c3OCC4)CC2)CC1 (mixture of isomers) [Example 101, trans-N-(4-{2-[4-(2,3-Dihydro-furo[2,3-c]pyridin-7-yl)-piperazin-1-yl]-ethyl}-cyclohexyl)-(RS)-3-methoxy-butyramide]
1150 | 14.7 | 21.7 | 213 | O=C(CC1CCOCC1)N[C@H]1CC[C@H](CCN2CCN(c3nccc4ccoc34)CC2)CC1 [Example 12, trans-N-{4-[2-(4-Furo[2,3-c]pyridin-7-yl-piperazin-1-yl)-ethyl]-cyclohexyl}-2-(tetrahydro-pyran-4-yl)-acetamide]
1130 | 7.85 | 20.7 | 146 | COCCC(=O)N[C@H]1CC[C@H](CCN2CCN(c3nccc4ccoc34)CC2)CC1 [Example 13, trans-N-{4-[2-(4-Furo[2,3-c]pyridin-7-yl-piperazin-1-yl)-ethyl]-cyclohexyl}-3-methoxy-propionamide]
502 | 3.57 | 9.48 | 187.5 | CCC(=O)N[C@H]1CC[C@H](CCN2CCN(c3nccc4ccoc34)CC2)CC1 [Example 14, trans-N-{4-[2-(4-Furo[2,3-c]pyridin-7-yl-piperazin-1-yl)-ethyl]-cyclohexyl}-propionamide]
1230 | 17.7 | 9.97 | 132 | COCC(=O)N[C@H]1CC[C@H](CCN2CCN(c3nccc4ccoc34)CC2)CC1 [Example 16, trans-N-{4-[2-(4-Furo[2,3-c]pyridin-7-yl-piperazin-1-yl)-ethyl]-cyclohexyl}-2-methoxy-acetamide]
576 | 4.26 | 10.9 | 182 | CS(=O)(=O)CC(=O)N[C@H]1CC[C@H](CCN2CCN(c3nccc4ccoc34)CC2)CC1 [Example 17, trans-N-{4-[2-(4-Furo[2,3-c]pyridin-7-yl-piperazin-1-yl)-ethyl]-cyclohexyl}-2-methanesulfonyl-acetamide]
648 | 3.94 | 43.3 | 196 | CCC(=O)N[C@H]1CC[C@H](CCN2CCN(c3nccc4c3OCC4)CC2)CC1 [Example 18, trans-N-(4-{2-[4-(2,3-Dihydro-furo[2,3-c]pyridin-7-yl)-piperazin-1-yl]-ethyl}-cyclohexyl)-propionamide]
1220 | 8.9 | 29.7 | 194.5 | O=C(CC1COCCO1)N[C@H]1CC[C@H](CCN2CCN(c3nccc4c3OCC4)CC2)CC1 (stereo partly drawn) [Example 19, trans-N-(4-{2-[4-(2,3-Dihydro-furo[2,3-c]pyridin-7-yl)-piperazin-1-yl]-ethyl}-cyclohexyl)-2-[1,4]dioxan-2-yl-acetamide]
 | 6.08 | 48.5 | 187 | O=C(Cc1ccc2c(c1)OCO2)N[C@H]1CC[C@H](CCN2CCN(c3nccc4c3OCC4)CC2)CC1 [Example 80, trans-2-Benzo[1,3]dioxol-5-yl-N-(4-{2-[4-(2,3-dihydro-furo[2,3-c]pyridin-7-yl)-piperazin-1-yl]-ethyl}-cyclohexyl)-acetamide]

Continued, compound first:

SMILES | Ki [1] [nM] | Ki [2] [nM] | Ki [3] [nM] | melting point [°C]
CO[C@@H]1CC[C@@H](CC(=O)N[C@H]2CC[C@H](CCN3CCN(c4nccc5ccsc45)CC3)CC2)C1 (racemic) [Example 5, 2-(trans-3-Methoxy-cyclopentyl)-N-{trans-4-[2-(4-thieno[2,3-c]pyridin-7-yl-piperazin-1-yl)-ethyl]cyclohexyl}-acetamide] | 433 | 10 | 7.7 | 
CC(=O)N[C@H]1CC[C@H](CCN2CCN(c3nccc4ccsc34)CC2)CC1 [Example 1, N-{trans-4-[2-(4-Thieno[2,3-c]pyridin-7-yl-piperazin-1-yl)-ethyl]-cyclohexyl}-acetamide] | 392 | 2.3 | 11.9 | 
CCC(=O)N[C@H]1CC[C@H](CCN2CCN(c3nccc4ccsc34)CC2)CC1 [Example 2, N-{trans-4-[2-(4-Thieno[2,3-c]pyridin-7-yl-piperazin-1-yl)-ethyl]-cyclohexyl}-propionamide] | 229 | 1.9 | 9.2 | 
COCCC(=O)N[C@H]1CC[C@H](CCN2CCN(c3nccc4ccsc34)CC2)CC1 [Example 3, 3-Methoxy-N-{trans-4-[2-(4-thieno[2,3-c]pyridin-7-yl-piperazin-1-yl)-ethyl]-cyclohexyl}-propionamide] | 401 | 1.9 | 10.6 | 
CO[C@H]1CC[C@H](CC(=O)N[C@H]2CC[C@H](CCN3CCN(c4nccc5ccsc45)CC3)CC2)CC1 [Example 4, 2-(trans-4-Methoxy-cyclohexyl)-N-{trans-4-[2-(4-thieno[2,3-c]pyridin-7-yl-piperazin-1-yl)-ethyl]-cyclohexyl}-acetamide] | 739 | 14 | 9.6 | 
CC(=O)N[C@H]1CC[C@H](CCN2CCN(c3nccc4c3OCC4)CC2)CC1 [Example 6, trans-N-(4-{2-[4-(2,3-Dihydro-furo[2,3-c]pyridin-7-yl)-piperazin-1-yl]-ethyl}-cyclohexyl)-acetamide] | 472 | 4 | 58.2 | 195
O=C(N[C@H]1CC[C@H](CCN2CCN(c3nccc4c3OCC4)CC2)CC1)C1CCOCC1 [Example 7, trans-Tetrahydro-pyran-4-carboxylic acid (4-{2-[4-(2,3-dihydro-furo[2,3-c]pyridin-7-yl)-piperazin-1-yl]-ethyl}-cyclohexyl)-amide] | 354 | 13.1 | 15.6 | 236.5
O=C(CC1CCOCC1)N[C@H]1CC[C@H](CCN2CCN(c3nccc4c3OCC4)CC2)CC1 [Example 8, trans-N-(4-{2-[4-(2,3-Dihydro-furo[2,3-c]pyridin-7-yl)-piperazin-1-yl]-ethyl}-cyclohexyl)-2-(tetrahydro-pyran-4-yl)-acetamide] | 1480 | 7.49 | 48.9 | 222.5
COCCC(=O)N[C@H]1CC[C@H](CCN2CCN(c3nccc4c3OCC4)CC2)CC1 [Example 9, trans-N-(4-{2-[4-(2,3-Dihydro-furo[2,3-c]pyridin-7-yl)-piperazin-1-yl]-ethyl}-cyclohexyl)-3-methoxy-propionamide] | 991 | 5.14 | 67.5 | 180
CC(=O)N[C@H]1CC[C@H](CCN2CCN(c3nccc4ccoc34)CC2)CC1 [Example 10, trans-N-{4-[2-(4-Furo[2,3-c]pyridin-7-yl-piperazin-1-yl)-ethyl]-cyclohexyl}-acetamide] | 684 | 6.44 | 18.8 | 157
O=C(N[C@H]1CC[C@H](CCN2CCN(c3nccc4ccoc34)CC2)CC1)C1CCOCC1 [Example 11, Tetrahydro-pyran-4-carboxylic acid trans-{4-[2-(4-furo[2,3-c]pyridin-7-yl-piperazin-1-yl)-ethyl]-cyclohexyl}-amide] | 511 | 22.6 | 7.29 | 211
